≈ marks a conversion by molar mass, not a printed value.
Columns and labels:
[1] = Kinetic solubility in TBS/Ca2+ buffer (HPLC-MS); format: physicochemical; conditions: aqueous buffer, kinetic from dmso stock; TBS/Ca2+ buffer pH 7.4, 1 % DMSO, N≥3; read-out: Solubility S (kinetic)
Method: Next, we quantified the solubility of at least one representative of each new class and of one parent bisacylhydrazone in aqueous media (Table 1). […]
TBS/Ca2+ buffer (20 mM Tris, 137 mM NaCl, 2.6 mM KCl at pH 7.4 supplemented with 1 mM […]
CaCl2) in presence of 25% DMSO. […]
Kinetic solubility was determined on the analytical HPLC-MS using Compass QuantAnalysis quantification software (Bruker). Samples were prepared from DMSO stock solutions by dilution with TBS/Ca2+ buffer to 100 µM with 1% DMSO present. Samples were incubated on a shaker for 1 h at r.t., centrifuged (21380 g, 20 min), supernatants were diluted with DMSO (1:3), analyzed by HPLC-MS and fitted to the individual calibration curves.
Every experiment was repeated independently at least three times. […]

[2] = In vitro metabolic stability, human liver microsomes; format: in vitro ADME; conditions: N=3, read-out: CLint HLM
Method: We then determined the in vitro metabolic stability in plasma and liver microsomes as well as plasma protein binding for a selected subset of the synthesized LecA inhibitors, i.e. D1, D2, H1, H2 and L2 and compared them to the parent bisacylhydrazone 14 (Table 2). […] The metabolic stability of the compounds differed in presence of human liver microsomes (HLM). Introduction of a pyridine ring decreased stability (H1 CLint=28.6 μL min^−1/mg protein, H2 CLint=32.5 μL min^−1/mg protein) compared to the benzene analogues (D1 CLint=21.9 μL min^−1/mg protein, D2 CLint=21.0 μL min^−1/mg protein) and to the parent acylhydrazone 14 (CLint=19.6 μL min^−1/mg protein). […]
mixer (Eppendorf). Acetonitrile and caffeine were dispensed using a Mantis Formulatrix. Then samples were centrifuged for 20 min at 2.270 x g at 4 °C and the supernatants were transferred to 96-well Greiner V-bottom plates. Peak areas of each compound and of the internal standard were analyzed using the MultiQuant 3.0 software (AB Sciex). Peak areas of the respective compound were normalized to the internal standard peak area and to the respective peak areas at time point 0 min: (C/D)/(A/B) with A: peak area of the compound at time point 0 min, B: peak area of the internal standard at time point 0 min, C: peak area of the compound at the respective time point, D: peak area of the internal standard at the respective time point.
In vitro metabolic stability assay
Liver microsomes (mouse and human, Thermo Fisher) were thawed slowly on ice. 20 mg/mL of microsomes, 2 µL of a 100 µM solution of every compound and 183 µL of 100 mM phosphate buffer were incubated 5 min at 37 °C in a water bath. Reactions were initiated using 10 µL of 20 mM NADPH (CarlRoth). Samples were incubated in three replicates at 37 °C under gentle agitation at 150 rpm. At 0, 5, 15, 30, and 60 min, reactions were terminated by the addition of 180 µL acetonitrile using a Mantis Formulatrix dispenser. Samples were vortexed for 5 min using an Eppendorf MixMate vortex mixer and centrifuged at 2.270 x g for 20 min at 4 °C. The supernatants were transferred to 96-well Greiner V-bottom plates, sealed and analyzed according to the section HPLC-MS analysis. Peak areas of the respective time point of the compounds were normalized to the peak area at time point 0 min. Then half-life was calculated using linear regression (Microsoft Excel). Clint [µL/min/mg protein] was calculated using the following formula: […]

LecA-treated H1299 cells = assay: Scratch-wound healing assay; format: cell-based, human; conditions: 3.9 μM LecA; for Wound closure after 24 h: 100 μM inhibitor
Excerpt: The opportunistic bacterium P. aeruginosa depends on favorable circumstances to infect the host, such as a suppressed immunity or wounded skin.[34, 35] Chronic infection of wounds with P. aeruginosa increases the risk of nosocomial spread, are difficult to treat and after systemic dissemination can result in a fatal outcome in patients. In a previous study, we investigated the effect of the fucose‐binding P. aeruginosa lectin LecB on epithelial wound healing.[36] […] Here, we investigated whether LecA also impairs the same physiological process. To this end, H1299 cell monolayers were grown, and after scratching with a pipette tip, wound closure was monitored microscopically (Figure 5a). […] The mode of action of LecA in the wound healing process remains elusive. […] Importantly, when LecA was added to the cells together with L2 (10 μM and 100 μM, respectively), the wound healed at a similar rate to the control in absence of LecA. Remarkably, in presence of 10 μM L2, cell migration was restored to about 70 % compared to the negative control, and the wound closed by 80 % after 24 h of incubation with 100 μM L2 (Figure 5b). […]
using NIS-Element Confocal 4.20 from Nikon and ImageJ 1.52a from Laboratory for Optical and Computational Instrumentation.
Cell proliferation (MTT) assay […]
Subsequently, 10 μL of MTT labelling solution was added to each well and the cells were incubated for another 4 h at 37 °C. […] The next day, the absorbance of the samples was measured at 550 nm using a BioTek microplate reader (BioTek Instruments Inc., Winooski, VT, USA). The data were analyzed using Microsoft Excel and GraphPad Prism […]
2 x 10^5 cells were seeded on 12-well plates and formed a confluent monolayer after 24 h. […] The samples were imaged with an EVOS microscope (PEQLAB by VWR Life Sciences, Avantor Performance Materials Inc., Center Valley, PA, USA) and analyzed with ImageJ and Microsoft Excel. […] Experiment was repeated independently three times (N = 3) and evaluated with two tailed, […]

| Compound | solubility kinetic at 1 h [1] | microsomal CLint at 1 µM [2] | Wound closure after 24 h (LecA-treated H1299 cells) | Cell migration / wound closure restored after 24 h (LecA-treated H1299 cells; 10 μM inhibitor) |
| --- | --- | --- | --- | --- |
| O=C(/C=C/c1ccc(O[C@@H]2O[C@H](CO)[C@H](O)[C@H](O)[C@H]2O)cc1)Nc1ccc(OCCOc2ccc(NC(=O)/C=C/c3ccc(O[C@@H]4O[C@H](CO)[C@H](O)[C@H](O)[C@H]4O)cc3)cc2)cc1 [Compound D1] | 3.3 ± 1.3 µM (≈ 2.84 µg/mL) | 21.9 µL/min/mg | – | – |
| O=C(CCc1ccc(O[C@@H]2O[C@H](CO)[C@H](O)[C@H](O)[C@H]2O)cc1)Nc1ccc(OCCOc2ccc(NC(=O)CCc3ccc(O[C@@H]4O[C@H](CO)[C@H](O)[C@H](O)[C@H]4O)cc3)cc2)cc1 [Compound D2] | 3.1 ± 2.1 µM (≈ 2.68 µg/mL) | 21 µL/min/mg | – | – |
| O=C(/C=C/c1ccc(O[C@@H]2O[C@H](CO)[C@H](O)[C@H](O)[C@H]2O)cc1)Nc1ccc(OCCOc2ccc(NC(=O)/C=C/c3ccc(O[C@@H]4O[C@H](CO)[C@H](O)[C@H](O)[C@H]4O)cc3)cn2)nc1 [Compound H1] | 8.1 ± 2.2 µM (≈ 6.99 µg/mL) | 28.6 µL/min/mg | – | – |
| O=C(CCc1ccc(O[C@@H]2O[C@H](CO)[C@H](O)[C@H](O)[C@H]2O)cc1)Nc1ccc(OCCOc2ccc(NC(=O)CCc3ccc(O[C@@H]4O[C@H](CO)[C@H](O)[C@H](O)[C@H]4O)cc3)cn2)nc1 [Compound H2] | 14.8 ± 1.5 µM (≈ 12.8 µg/mL) | 32.5 µL/min/mg | – | – |
| Cc1ccc(NC(=O)CCc2ccc(O[C@@H]3O[C@H](CO)[C@H](O)[C@H](O)[C@H]3O)cc2)cc1S(=O)(=O)O [Compound K2] | – | – | about 50% | – |
| O=C(CCc1ccc(O[C@@H]2O[C@H](CO)[C@H](O)[C@H](O)[C@H]2O)cc1)Nc1ccc(CCc2ccc(NC(=O)CCc3ccc(O[C@@H]4O[C@H](CO)[C@H](O)[C@H](O)[C@H]4O)cc3)cc2S(=O)(=O)O)c(S(=O)(=O)O)c1 [Compound L2] | – | 9.2 µL/min/mg | 80% | about 70% |

Source: paper PMC10107299, “Neutralizing the Impact of the Virulence Factor LecA from Pseudomonas aeruginosa on Human Cells with New Glycomimetic Inhibitors” (Angewandte Chemie (International Ed. in English), 2023)
